The NIST ThermoML archive (doi:10.1016/j.fluid.2011.01.027)
± gives the expanded uncertainty stated by the source.

Question: For `CCCCCCn1cc[n+](C)c1.F[B-](F)(F)F` [1-hexyl-3-methylimidazolium tetrafluoroborate], which surface tension liquid-gas (268.58 K, Wilhelmy plate method) is on record?
Answer: The surface tension liquid-gas was 39.81 ± 0.2 mN/m.

Question: And the surface tension liquid-gas (268.58 K, du Nouy ring method)?
Answer: Its surface tension liquid-gas is 39.79 ± 0.2 mN/m.

Question: What about the surface tension liquid-gas (273.34 K, Wilhelmy plate method) of the same molecule?
Answer: Its surface tension liquid-gas is 39.52 ± 0.2 mN/m.

Question: And the surface tension liquid-gas (273.34 K, du Nouy ring method)?
Answer: Its surface tension liquid-gas is 39.54 ± 0.2 mN/m.

Question: And the surface tension liquid-gas (277.72 K, Wilhelmy plate method)?
Answer: The surface tension liquid-gas was 39.29 ± 0.2 mN/m.

Question: And the surface tension liquid-gas (277.76 K, du Nouy ring method)?
Answer: Its surface tension liquid-gas is 39.32 ± 0.2 mN/m.

Question: What about the surface tension liquid-gas (282.51 K, Wilhelmy plate method) of the same molecule?
Answer: Its surface tension liquid-gas is 39.04 ± 0.2 mN/m.

Question: What about the surface tension liquid-gas (282.71 K, du Nouy ring method) of the same molecule?
Answer: Its surface tension liquid-gas is 39.21 ± 0.2 mN/m.

Question: And the surface tension liquid-gas (288.13 K, Wilhelmy plate method)?
Answer: The surface tension liquid-gas was 38.71 ± 0.19 mN/m.

Question: And the surface tension liquid-gas (288.13 K, du Nouy ring method)?
Answer: Its surface tension liquid-gas is 38.75 ± 0.19 mN/m.

Question: What about the surface tension liquid-gas (292.87 K, Wilhelmy plate method) of the same molecule?
Answer: The surface tension liquid-gas was 38.47 ± 0.19 mN/m.

Question: And the surface tension liquid-gas (292.93 K, du Nouy ring method)?
Answer: The surface tension liquid-gas was 38.49 ± 0.19 mN/m.

Question: And the surface tension liquid-gas (298.07 K, Wilhelmy plate method)?
Answer: Its surface tension liquid-gas is 38.2 ± 0.19 mN/m.

Question: And the surface tension liquid-gas (298.07 K, du Nouy ring method)?
Answer: The surface tension liquid-gas was 38.21 ± 0.19 mN/m.

Question: And the surface tension liquid-gas (303.15 K, Wilhelmy plate method)?
Answer: Its surface tension liquid-gas is 37.88 ± 0.19 mN/m.

Question: And the surface tension liquid-gas (303.19 K, du Nouy ring method)?
Answer: The surface tension liquid-gas was 37.85 ± 0.19 mN/m.

Question: And the surface tension liquid-gas (308.22 K, du Nouy ring method)?
Answer: The surface tension liquid-gas was 37.66 ± 0.19 mN/m.

Question: What about the surface tension liquid-gas (308.23 K, Wilhelmy plate method) of the same molecule?
Answer: Its surface tension liquid-gas is 37.64 ± 0.19 mN/m.

Question: And the surface tension liquid-gas (313.35 K, Wilhelmy plate method)?
Answer: Its surface tension liquid-gas is 37.32 ± 0.19 mN/m.

Question: What about the surface tension liquid-gas (313.48 K, du Nouy ring method) of the same molecule?
Answer: Its surface tension liquid-gas is 37.33 ± 0.19 mN/m.

Question: And the surface tension liquid-gas (318.39 K, du Nouy ring method)?
Answer: The surface tension liquid-gas was 37.08 ± 0.19 mN/m.

Question: And the surface tension liquid-gas (318.48 K, Wilhelmy plate method)?
Answer: Its surface tension liquid-gas is 37.08 ± 0.19 mN/m.

Question: And the surface tension liquid-gas (323.32 K, du Nouy ring method)?
Answer: The surface tension liquid-gas was 36.83 ± 0.18 mN/m.

Question: What about the surface tension liquid-gas (323.34 K, Wilhelmy plate method) of the same molecule?
Answer: The surface tension liquid-gas was 36.81 ± 0.18 mN/m.

Question: What about the surface tension liquid-gas (328.17 K, Wilhelmy plate method) of the same molecule?
Answer: Its surface tension liquid-gas is 36.53 ± 0.18 mN/m.

Question: What about the surface tension liquid-gas (328.2 K, du Nouy ring method) of the same molecule?
Answer: The surface tension liquid-gas was 36.54 ± 0.18 mN/m.

Question: And the surface tension liquid-gas (333.22 K, Wilhelmy plate method)?
Answer: The surface tension liquid-gas was 36.25 ± 0.18 mN/m.

Question: What about the surface tension liquid-gas (333.24 K, du Nouy ring method) of the same molecule?
Answer: The surface tension liquid-gas was 36.21 ± 0.18 mN/m.

Question: And the surface tension liquid-gas (337.92 K, Wilhelmy plate method)?
Answer: Its surface tension liquid-gas is 36.01 ± 0.18 mN/m.

Question: What about the surface tension liquid-gas (337.97 K, du Nouy ring method) of the same molecule?
Answer: Its surface tension liquid-gas is 36 ± 0.18 mN/m.

Question: And the surface tension liquid-gas (343.79 K, Wilhelmy plate method)?
Answer: The surface tension liquid-gas was 35.68 ± 0.18 mN/m.

Question: What about the surface tension liquid-gas (343.79 K, du Nouy ring method) of the same molecule?
Answer: The surface tension liquid-gas was 35.7 ± 0.18 mN/m.

Question: What about the surface tension liquid-gas (348.5 K, Wilhelmy plate method) of the same molecule?
Answer: The surface tension liquid-gas was 35.44 ± 0.18 mN/m.

Question: What about the surface tension liquid-gas (348.54 K, du Nouy ring method) of the same molecule?
Answer: The surface tension liquid-gas was 35.39 ± 0.18 mN/m.

Question: And the surface tension liquid-gas (356.17 K, Wilhelmy plate method)?
Answer: Its surface tension liquid-gas is 34.99 ± 0.18 mN/m.

Question: What about the surface tension liquid-gas (356.18 K, du Nouy ring method) of the same molecule?
Answer: The surface tension liquid-gas was 35 ± 0.18 mN/m.

Question: Which results are given for `CCCCn1cc[n+](C)c1.O=S(=O)([O-])C(F)(F)F` [1-butyl-3-methylimidazolium trifluoromethanesulfonate]?
Answer: surface tension liquid-gas (292.18 K, Wilhelmy plate method): 35.39 ± 0.09 mN/m; surface tension liquid-gas (292.24 K, du Nouy method): 35.4 ± 0.09 mN/m; surface tension liquid-gas (293.4 K, Wilhelmy plate method): 35.21 ± 0.18 mN/m; surface tension liquid-gas (293.45 K, du Nouy method): 35.17 ± 0.18 mN/m; surface tension liquid-gas (298.06 K, Wilhelmy plate method): 35.18 ± 0.09 mN/m; surface tension liquid-gas (298.12 K, du Nouy method): 35.2 ± 0.09 mN/m; surface tension liquid-gas (298.22 K, Wilhelmy plate method): 35.09 ± 0.18 mN/m; surface tension liquid-gas (298.27 K, du Nouy method): 35.1 ± 0.18 mN/m; surface tension liquid-gas (303.03 K, Wilhelmy plate method): 35.05 ± 0.09 mN/m; surface tension liquid-gas (303.09 K, du Nouy method): 35.09 ± 0.09 mN/m; surface tension liquid-gas (303.18 K, Wilhelmy plate method): 34.87 ± 0.17 mN/m; surface tension liquid-gas (303.2 K, du Nouy method): 34.98 ± 0.18 mN/m; surface tension liquid-gas (308.01 K, Wilhelmy plate method): 34.71 ± 0.17 mN/m; surface tension liquid-gas (308.06 K, Wilhelmy plate method): 34.83 ± 0.09 mN/m; surface tension liquid-gas (308.08 K, du Nouy method): 34.85 ± 0.09 mN/m; surface tension liquid-gas (313.26 K, Wilhelmy plate method): 34.65 ± 0.09 mN/m; surface tension liquid-gas (313.31 K, du Nouy method): 34.63 ± 0.09 mN/m; surface tension liquid-gas (313.58 K, du Nouy method): 34.59 ± 0.17 mN/m; surface tension liquid-gas (313.59 K, Wilhelmy plate method): 34.54 ± 0.17 mN/m; surface tension liquid-gas (318.1 K, du Nouy method): 34.44 ± 0.09 mN/m; surface tension liquid-gas (318.13 K, Wilhelmy plate method): 34.53 ± 0.09 mN/m; surface tension liquid-gas (318.51 K, Wilhelmy plate method): 34.35 ± 0.17 mN/m; surface tension liquid-gas (318.68 K, du Nouy method): 34.36 ± 0.17 mN/m; surface tension liquid-gas (322.87 K, Wilhelmy plate method): 34.34 ± 0.09 mN/m; surface tension liquid-gas (322.93 K, Wilhelmy plate method): 34.18 ± 0.17 mN/m; surface tension liquid-gas (322.99 K, du Nouy method): 34.22 ± 0.17 mN/m; surface tension liquid-gas (327.64 K, Wilhelmy plate method): 34.19 ± 0.09 mN/m; surface tension liquid-gas (327.64 K, du Nouy method): 34.08 ± 0.09 mN/m; surface tension liquid-gas (328.05 K, Wilhelmy plate method): 34.03 ± 0.17 mN/m; surface tension liquid-gas (328.09 K, du Nouy method): 33.8 ± 0.17 mN/m; surface tension liquid-gas (332.66 K, Wilhelmy plate method): 33.85 ± 0.17 mN/m; surface tension liquid-gas (332.74 K, du Nouy method): 33.82 ± 0.17 mN/m; surface tension liquid-gas (333.21 K, Wilhelmy plate method): 34.01 ± 0.09 mN/m; surface tension liquid-gas (333.25 K, du Nouy method): 33.89 ± 0.09 mN/m; surface tension liquid-gas (337.68 K, Wilhelmy plate method): 33.81 ± 0.09 mN/m; surface tension liquid-gas (337.83 K, Wilhelmy plate method): 33.74 ± 0.17 mN/m; surface tension liquid-gas (337.84 K, du Nouy method): 33.44 ± 0.17 mN/m; surface tension liquid-gas (337.92 K, du Nouy method): 33.73 ± 0.09 mN/m; surface tension liquid-gas (342.72 K, Wilhelmy plate method): 33.61 ± 0.08 mN/m; surface tension liquid-gas (343.12 K, du Nouy method): 33.47 ± 0.08 mN/m; surface tension liquid-gas (343.53 K, Wilhelmy plate method): 33.47 ± 0.17 mN/m; surface tension liquid-gas (343.61 K, du Nouy method): 33.41 ± 0.17 mN/m; surface tension liquid-gas (347.73 K, du Nouy method): 33.36 ± 0.08 mN/m; surface tension liquid-gas (347.79 K, Wilhelmy plate method): 33.54 ± 0.09 mN/m; surface tension liquid-gas (348.54 K, Wilhelmy plate method): 33.28 ± 0.17 mN/m; surface tension liquid-gas (348.64 K, du Nouy method): 32.9 ± 0.17 mN/m; surface tension liquid-gas (352.45 K, Wilhelmy plate method): 33.27 ± 0.08 mN/m; surface tension liquid-gas (352.7 K, du Nouy method): 33.08 ± 0.09 mN/m; surface tension liquid-gas (355.89 K, Wilhelmy plate method): 33 ± 0.17 mN/m; surface tension liquid-gas (356 K, du Nouy method): 32.82 ± 0.16 mN/m
